In patent publication US6342484B1, “Method and compositions for promotion of wound treatment” (Board of Regents, The University of Texas Systems, priority 1993, dated 2002):

Key:
[1] = system: wound cylinder of PTFE in Balb/C mice; experiment: Wound hydroxyproline content in PTFE wound cylinder, adenine/uracil/RNA diets (Example 2, FIG. 1); format: in vivo, mouse; conditions: for amount of OHP/cm PTFE over both the nucleotide free and the non-supplemented diets: diet at least 30 days before implantation, tenth post-operative day
Source text: Twenty-five Balb/C mice were divided into five test groups (n=5) and housed in groups in the animal care facilities. Each group received one of the following diets ad libertum: F—normal mouse chow, NF—nucleotide free diet, NFR—yeast RNA supplemented diet, NFA—adenine supplemented diet, and NFU—uracil supplemented diet. All groups received these diets for at least 30 days prior to wound cylinder implantation. All animals received water ad libitum.
Polytetrafluorethylene (PTFE, Impra Vascular Graft, 3 mm lumen, […]) wound cylinders (1.5 cm long) were placed subcutaneously in the dorsal midline of each animal under general anesthesia (Methoxyflurane, inhalation). All animals were continued on their test diets. On the tenth post-operative day, all animals were euthanized by cervical dislocation and the would cylinders were removed for analysis.
Wound cylinders were analyzed for hydroxyproline (OHP) content using the method of Woessner. Briefly, approximately 1 cm segments of the wound cylinders were hydrolyzed in 0.5 ml 6 N HCl for 3 hours at 130 C. Samples were cooled and 0.5 ml aliquots were neutralized with the appropriate volume of 1 N NaOH. Each sample was diluted to 5.25 ml with H2O in order to reduce the total NaCl concentration to below 0.4 M. Each sample was then reacted as described by Woessner.

[2] = system: 4mm punch wound in Balb/c mice; experiment: Topical applications on 4 mm punch wounds, visual contraction of wounds (Example 5); format: in vivo, mouse; conditions: for Relative efficacy (wound contraction): topical agent on wound, uracil 100 μM, two weeks
Description: Balb/c mice were divided into three dietary groups (F=normal mouse chow; NF=nucleotide free mouse chow; and NFR=nucleotide free mouse chow supplemented with yeast RNA). Each group was fed before initiation of wounds. After 4 weeks of feeding, a 4mm punch wound was created on the dorsal surface of each mouse, using a 4mm biopsy punch. The wounds were coated with four different topical agents: 1) saline; 2) uracil {100 μM concentration); 3) saline+CCM; and 4) Uracil+CCM (CCM=crosslinked collagen mesh). CCM is ‘Collagen Permeable Membrane’ from Accurate Chemical & Scientific Corporation, catalog no. YIC 152299. Four mm size circles were soaked with appropriate nucleotide or saline solution (4mm punch wounds) and used to dress the wounds.
Twelve groups were formed from these combinations (n=3). Mice were continued on their respective diets. Wounds were observed visually and photographed at four different times during the experimental period of two weeks.
A record was made of the progressive contraction of the wounds and area among the various dietary and treatment groups.

Row | Structure (SMILES) | fold increase of the amount of OHP in the wound [1] | significance of OHP increase over the non-supplemented diet [1] | significance of OHP increase over the nucleotide free diet [1] | amount of OHP/cm PTFE over both the nucleotide free and the non-supplemented diets [1] | results compared with uracil as topical agent ([2]; 100 μM as topical agent in place of uracil) | Relative efficacy (wound contraction) ([2]; Diet F (normal mouse chow)) | Relative efficacy (wound contraction) ([2]; Diet NF (nucleotide free chow)) | Relative efficacy (wound contraction) ([2]; Diet NFR (yeast RNA supplemented))
1 | Nc1ncnc2nc[nH]c12 [Adenine, adenine] | close to two times | statistically significant | significant | increased |  |  |  | 
2 | OC[C@H]1O[C@@H](n2cnc3c(O)ncnc32)[C@H](O)[C@@H]1O [inosine] |  |  |  |  | no significant differences |  |  | 
3 | O=c1cc[nH]c(=O)[nH]1 [uracil] |  |  |  | increased |  | moderate | minimal | moderate
